This is an account of results in patent US8470552B2, “Strategy to reduce lactic acid production and control PH in animal cell culture” (Keck Graduate Institute, priority 2009, dated 2013).

Structures are written as SMILES.

The subject of assay [1] is DG44 CHO (Native Control cells). Kind of assay: Native control cells grown in various levels of Na-lactate and NaCl (shaker flasks). In kind it is cell-based, Chinese Hamster. How it is done: Unless otherwise noted, the experiments described herein were conducted with a dihydrofolate reductase deficient (DHFR^−) Chinese Hamster Ovary cell line, DG44 CHO (Invitrogen, Carlsbad, Calif.). Prior to experimentation, the cells were transfected with a pOPTI-Vec TOPO plasmid vector containing the gene for a recombinant monoclonal ScFv-Fc1 protein fragment. Transfected cells were grown in selective OptiCHO medium (Invitrogen, Carlsbad, Calif.) and the recombinant gene copy number was further amplified by supplementing the medium with 250 nM methotrexate. The amount of recombinant antibody fragment expressed was less than 10 mg/L and not subsequently measured. This cell line was used to test the feasibility of the novel approach in terms of cell growth, death, and metabolism. Cells were frozen down and hereafter referred to as “Native Control” cells. All subsequent experiments were performed without methotrexate.
Cell concentration and viability was measured by the trypan blue exclusion method using a ViCell analyzer (Beckman Coulter, Fullerton, Calif.). Off-line measurements were taken with a Bioprofile 400 (Nova Biomedical, Waltham, Mass.) for glucose, glutamine, lactate, carbon dioxide, oxygen, ammonium concentration and pH levels. Osmolality was measured by freezing point depression on a Model 3250 Osmometer (Advanced Instruments, Norwood, Mass.)
In the first set of experiments, illustrated in FIGS. 1-6, cultures were grown at 30 ml working volume in 125 ml shaker flasks (Corning, Lowell, Mass.) placed in an incubator at 37° C., 135 rpm, and 8% CO2. Continuous passages were performed every 3 to 4 days in duplicate shaker flasks inoculated at a seeding density of 1.0×10^6 cell/ml. After the cells were adapted to the high lactate concentration, longer-duration batch cultures were performed in triplicate shaker flasks for 12 days starting at a seeding density of 0.3×10^6 cells/ml. A sodium (D/L)-lactate stock solution (Sigma, Lowell, Mass.) was used for lactate supplementation. All reported lactate values are for the physiologically relevant L-Lactate isomer.
Specific rates were determined on a time interval bases by measuring daily viable and total cell density (VCD or TCD) and metabolite concentrations. Specific net growth rate (μN), was calculated as change in VCD over a time interval t1 to t2 using Equation 1: […]
Metabolic flux was calculated as specific nutrient consumption rate or specific metabolite production rate (qp) using Equations 5 and 6, where P is nutrient such as glucose or glutamine or metabolite such as lactic acid or ammonium) concentration:
Native control cells were grown in various levels of Na-lactate and NaCl to evaluate the impact each component had on growth and viability. Media compositions are discussed in Table 1.

Assay [2] has as its system Lactate Adapted cells (DG44 CHO). Put plainly: Lactate Adapted cells continuously passaged in medium containing 0 to 40 mM lactate. Type of assay: cell-based, Chinese Hamster. The procedure:
Unless otherwise noted, the experiments described herein were conducted with a dihydrofolate reductase deficient (DHFR^−) Chinese Hamster Ovary cell line, DG44 CHO (Invitrogen, Carlsbad, Calif.). Prior to experimentation, the cells were transfected with a pOPTI-Vec TOPO plasmid vector containing the gene for a recombinant monoclonal ScFv-Fc1 protein fragment. Transfected cells were grown in selective OptiCHO medium (Invitrogen, Carlsbad, Calif.) and the recombinant gene copy number was further amplified by supplementing the medium with 250 nM methotrexate. The amount of recombinant antibody fragment expressed was less than 10 mg/L and not subsequently measured. This cell line was used to test the feasibility of the novel approach in terms of cell growth, death, and metabolism. Cells were frozen down and hereafter referred to as “Native Control” cells. […]
Cell concentration and viability was measured by the trypan blue exclusion method using a ViCell analyzer (Beckman Coulter, Fullerton, Calif.). […] Osmolality was measured by freezing point depression on a Model 3250 Osmometer (Advanced Instruments, Norwood, Mass.) […]
Metabolic flux was calculated as specific nutrient consumption rate or specific metabolite production rate (qp) using Equations 5 and 6, where P is nutrient such as glucose or glutamine or metabolite such as lactic acid or ammonium) concentration: […]

On to `CC(O)C(=O)[O-].[Na+]` (stereo not shown) [Na-lactate, sodium lactate], for which the “specific lactic acid production” value in assay [1] (27 mM lactate (FIG. 1C)) is reported as “dramatic drop”; in assay [1] (40 mM lactate (FIG. 1C)), “clear shift from production to consumption”. In assay [1] (non-adapted cells, Na-lactate compared with NaCl (FIG. 1B)), the “specific total growth and death rate” value is “impacted specific total growth and death rate the most”. Besides, in assay [1] (non-adapted cells, increasing lactate levels (FIG. 1A)), the “viable cell density (VCD)” value is “clear reduction”. Moreover, in assay [2] (cultures inoculated between 35 to 40 mM lactate (FIG. 3)), the lactic acid production result is on record as “substantially reduced”. Further, the “initial lactate concentration at zero net flux of lactic acid production” value in assay [2] (predicted from FIG. 3) is “above 40 mM”.

On to `[Cl-].[Na+]` [NaCl, sodium chloride, reference compound], for which, in assay [1] (NaCl supplementation (FIG. 1C)), the “specific lactic acid production” value is listed as “No such effect”.
